Measured values published in patent US10420341B2, “Herbicidal phenylpyrimidines” (BASF SE, priority 2015, dated 2019).

Experiments:
APESV = assay: greenhouse pre-emergence herbicidal test; type: in vivo, Apera spica-venti; settings: pre-emergence method, scale from 0 to 100
Text: (§1) The seeds of the test plants were sown separately for each species. For the pre-emergence treatment, the active ingredients, which had been suspended or emulsified in water, were applied directly after sowing by means of finely distributing nozzles. The containers were irrigated gently to promote germination and growth and subsequently covered with transparent plastic hoods until the plants had rooted. This cover caused uniform germination of the test plants, unless this had been impaired by the active ingredients. Depending on the species, the plants were kept at 10-25° C. or 20-35° C., respectively. The test period extended over 2 to 4 weeks. During this time, the plants were tended, and their response to the individual treatments was evaluated. Evaluation was carried out using a scale from 0 to 100. 100 means no emergence of the plants, or complete destruction of at least the aerial moieties, and 0 means no damage, or normal course of growth. […] The plants used in the greenhouse experiments were of the following species: [table]

ECHCG [1] = assay: greenhouse pre-emergence herbicidal test; type: in vivo, Echinocloa crus-galli; settings: pre-emergence method, scale from 0 to 100
Text: as §1

ECHCG [2] = assay: greenhouse post-emergence herbicidal test; type: in vivo, Echinocloa crus-galli; settings: post-emergence method, scale from 0 to 100
Text: (§2) The seeds of the test plants were sown separately for each species. For the post-emergence treatment, the test plants were first grown to a height of 3 to 15 cm, depending on the plant habit, and only then treated with the active ingredients which had been suspended or emulsified in water. For this purpose, the test plants were either sown directly and grown in the same containers, or they were first grown separately as seedlings and transplanted into the test containers a few days prior to treatment. Depending on the species, the plants were kept at 10-25° C. or 20-35° C., respectively. The test period extended over 2 to 4 weeks. During this time, the plants were tended, and their response to the individual treatments was evaluated. Evaluation was carried out using a scale from 0 to 100. 100 means no emergence of the plants, or complete destruction of at least the aerial moieties, and 0 means no damage, or normal course of growth. […] The plants used in the greenhouse experiments were of the following species: [table]

ALOMY = assay: greenhouse post-emergence herbicidal test; type: in vivo, Alopercurus myosuroides; settings: post-emergence method, scale from 0 to 100
Text: as §2

Row | SMILES | herbicidal activity against APESV (APESV; application rate 1000 g/ha) | herbicidal activity against ECHCG (ECHCG [1]; application rate 1000 g/ha) | other results
1 | CCc1ncc(-c2cc(C)ccc2Cl)c(C(=O)O)n1 [example 7] | very good (a very good herbicidal activity is given at values of at least 85) | very good (a very good herbicidal activity is given at values of at least 85) | 
2 | CCc1ncc(-c2cc(F)ccc2C)c(C(=O)O)n1 [example 10] |  |  | herbicidal activity against APESV (APESV; application rate 500 g/ha): very good (a very good herbicidal activity is given at values of at least 85); herbicidal activity against ECHCG (ECHCG [1]; application rate 500 g/ha): very good (a very good herbicidal activity is given at values of at least 85)
3 | CCc1ncc(-c2ccccc2Cl)c(C(=O)OC)n1 [example 19] | very good (a very good herbicidal activity is given at values of at least 85) | very good (a very good herbicidal activity is given at values of at least 85) | 
4 | CCc1ncc(-c2cc(C)ccc2Cl)c(C(=O)OC)n1 [example 20] | very good (a very good herbicidal activity is given at values of at least 85) | very good (a very good herbicidal activity is given at values of at least 85) | herbicidal activity against ECHCG (ECHCG [2]; application rate 1000 g/ha): good (A good herbicidal activity is given at values of at least 70)
5 | CCc1ncc(-c2cc(Cl)ccc2C)c(C(=O)OC)n1 [example 22] | good (A good herbicidal activity is given at values of at least 70) | good (A good herbicidal activity is given at values of at least 70) | 
6 | CCc1ncc(-c2cc(C)ccc2C)c(C(=O)OC)n1 [example 23] | very good (a very good herbicidal activity is given at values of at least 85) | very good (a very good herbicidal activity is given at values of at least 85) | 
7 | COC(=O)c1nc(C(C)C)ncc1-c1cc(C)ccc1C [example 38] | good (A good herbicidal activity is given at values of at least 70) | very good (a very good herbicidal activity is given at values of at least 85) | 
8 | COc1ncc(-c2ccccc2C)c(C(=O)O)n1 [example 52] |  |  | herbicidal activity against APESV (APESV; application rate 2000 g/ha): very good (a very good herbicidal activity is given at values of at least 85); herbicidal activity against ECHCG (ECHCG [1]; application rate 2000 g/ha): good (A good herbicidal activity is given at values of at least 70); herbicidal activity against ALOMY (ALOMY; application rate 2000 g/ha): good (A good herbicidal activity is given at values of at least 70)
9 | COc1ncc(-c2ccc(C)cc2C)c(C(=O)O)n1 [example 57] | very good (a very good herbicidal activity is given at values of at least 85) | very good (a very good herbicidal activity is given at values of at least 85) | 
10 | COC(=O)c1nc(OC)ncc1-c1cc(F)ccc1C [example 62] | very good (a very good herbicidal activity is given at values of at least 85) | good (A good herbicidal activity is given at values of at least 70) | 
11 | COc1ccc(F)c(-c2cnc(SC)nc2C(=O)O)c1 [example 83] |  |  | herbicidal activity against ECHCG (ECHCG [2]; application rate 2000 g/ha): good (A good herbicidal activity is given at values of at least 70)
12 | COc1ccc(-c2cnc(SC)nc2C(=O)O)c(C)c1 [example 100] |  |  | herbicidal activity against ECHCG (ECHCG [2]; application rate 2000 g/ha): good (A good herbicidal activity is given at values of at least 70)
13 | O=C(O)c1nc(C2CC2)ncc1-c1cc(Br)ccc1F [example 135] | very good (a very good herbicidal activity is given at values of at least 85) |  | herbicidal activity against ALOMY (ALOMY; application rate 1000 g/ha): herbicidal activity
14 | COc1ccc(Br)c(-c2cnc(C3CC3)nc2C(=O)O)c1 [example 153] | very good (a very good herbicidal activity is given at values of at least 85) |  | herbicidal activity against ECHCG (ECHCG [2]; application rate 1000 g/ha): very good (a very good herbicidal activity is given at values of at least 85)
15 | N#Cc1ccccc1-c1cnc(C2CC2)nc1C(=O)O [example 154] |  |  | herbicidal activity against APESV (APESV; application rate 500 g/ha): very good (a very good herbicidal activity is given at values of at least 85); herbicidal activity against ECHCG (ECHCG [1]; application rate 500 g/ha): very good (a very good herbicidal activity is given at values of at least 85); herbicidal activity against ALOMY (ALOMY; application rate 500 g/ha): very good (a very good herbicidal activity is given at values of at least 85); herbicidal activity against ECHCG (ECHCG [2]; application rate 500 g/ha): good (A good herbicidal activity is given at values of at least 70)
16 | O=C(O)c1nc(C2CC2)ncc1-c1ccccc1[N+](=O)[O-] [example 160] | very good (a very good herbicidal activity is given at values of at least 85) | very good (a very good herbicidal activity is given at values of at least 85) | herbicidal activity against ECHCG (ECHCG [2]; application rate 1000 g/ha): very good (a very good herbicidal activity is given at values of at least 85)
17 | COc1ccc(C)c(-c2cnc(C3CC3)nc2C(=O)O)c1 [example 166] |  |  | herbicidal activity against APESV (APESV; application rate 500 g/ha): very good (a very good herbicidal activity is given at values of at least 85); herbicidal activity against ECHCG (ECHCG [1]; application rate 500 g/ha): very good (a very good herbicidal activity is given at values of at least 85); herbicidal activity against ALOMY (ALOMY; application rate 500 g/ha): good (A good herbicidal activity is given at values of at least 70); herbicidal activity against ECHCG (ECHCG [2]; application rate 500 g/ha): good (A good herbicidal activity is given at values of at least 70)
18 | Cc1c(F)cccc1-c1cnc(C2CC2)nc1C(=O)O [example 170] | very good (a very good herbicidal activity is given at values of at least 85) | very good (a very good herbicidal activity is given at values of at least 85) | herbicidal activity against ALOMY (ALOMY; application rate 1000 g/ha): very good (a very good herbicidal activity is given at values of at least 85); herbicidal activity against ECHCG (ECHCG [2]; application rate 1000 g/ha): good (A good herbicidal activity is given at values of at least 70)
19 | CC(C)c1ccccc1-c1cnc(C2CC2)nc1C(=O)O [example 175] | very good (a very good herbicidal activity is given at values of at least 85) | very good (a very good herbicidal activity is given at values of at least 85) | 
20 | COc1ccccc1-c1cnc(C2CC2)nc1C(=O)O [example 177] | very good (a very good herbicidal activity is given at values of at least 85) | very good (a very good herbicidal activity is given at values of at least 85) | herbicidal activity against ECHCG (ECHCG [2]; application rate 1000 g/ha): good (A good herbicidal activity is given at values of at least 70)
21 | COc1ccc(OC)c(-c2cnc(C3CC3)nc2C(=O)O)c1 [example 179] |  |  | herbicidal activity against APESV (APESV; application rate 2000 g/ha): very good (a very good herbicidal activity is given at values of at least 85); herbicidal activity against ECHCG (ECHCG [2]; application rate 2000 g/ha): very good (a very good herbicidal activity is given at values of at least 85)
22 | COCOc1ccccc1-c1cnc(C2CC2)nc1C(=O)O [example 180] | very good (a very good herbicidal activity is given at values of at least 85) | very good (a very good herbicidal activity is given at values of at least 85) | herbicidal activity against ECHCG (ECHCG [2]; application rate 1000 g/ha): very good (a very good herbicidal activity is given at values of at least 85)
23 | C=Cc1ccccc1-c1cnc(C2CC2)nc1C(=O)O [example 183] |  |  | herbicidal activity against APESV (APESV; application rate 500 g/ha): very good (a very good herbicidal activity is given at values of at least 85); herbicidal activity against ECHCG (ECHCG [1]; application rate 500 g/ha): very good (a very good herbicidal activity is given at values of at least 85)
24 | O=C(O)c1nc(C2CC2)ncc1-c1ccccc1C1CC1 [example 187] | very good (a very good herbicidal activity is given at values of at least 85) | very good (a very good herbicidal activity is given at values of at least 85) | herbicidal activity against ECHCG (ECHCG [2]; application rate 1000 g/ha): very good (a very good herbicidal activity is given at values of at least 85)
25 | COC(=O)c1nc(C2CC2)ncc1-c1cc(C)ccc1C [example 228] |  |  | herbicidal activity against APESV (APESV; application rate 2000 g/ha): very good (a very good herbicidal activity is given at values of at least 85); herbicidal activity against ALOMY (ALOMY; application rate 2000 g/ha): very good (a very good herbicidal activity is given at values of at least 85); herbicidal activity against ECHCG (ECHCG [2]; application rate 2000 g/ha): very good (a very good herbicidal activity is given at values of at least 85)
26 | COC(=O)c1nc(C2CC2)ncc1-c1ccc(OC)cc1Cl [example 294] |  |  | herbicidal activity against ECHCG (ECHCG [2]; application rate 1000 g/ha): good (A good herbicidal activity is given at values of at least 70)
27 | COc1ccc(-c2cnc(C3CC3)nc2C(=O)O)c(Cl)c1 [example 296] | very good (a very good herbicidal activity is given at values of at least 85) |  | 
28 | COc1ccc(-c2cnc(C3CC3)nc2C(=O)O)c(F)c1 [example 297] | very good (a very good herbicidal activity is given at values of at least 85) |  | 
29 | COc1cc(F)ccc1-c1cnc(C2CC2)nc1C(=O)O [example 301] | good (A good herbicidal activity is given at values of at least 70) | very good (a very good herbicidal activity is given at values of at least 85) | 
